In patent US20080004227A1, “Pharmaceutical Composition for Lowering Blood Sugar Level” (PHARMAFRONTIER CO., LTD, priority 2004, published 2008):

Key:
[1] = test system: GLP-1 release; test: In vivo effects of ligands for GT01 on GLP-1 release (plasma GLP-1 enzyme immunoassay); set-up: species or system mouse; conditions: 100 nmol/g directly into the stomach of 24-hour fasted C57/B6 mice; blood 0.5 or 2 hours after administration (FIG. 11)
Method: A 100 nmol/g of fatty acid (α-linolenic acid, stearic acid, or octanoic acid) was included in polyethyleneglycol as a vehicle, and given, through a tube, directly into the stomach of 8-week old male C57/B6 mice (Sankyo Lab) after 24-hour fasting. The mice were each anaesthetized with diethyl ether 0.5 or 2 hours after the administration of the fatty acid, followed by sampling the blood from the portal vein using a heparinized syringe. The heparizized blood was centrifuged at 4° C. and 1,200×g for 20 minutes to prepare a plasma which was then subjected to enzyme immunoassay for GLP-1 (Yanaihara Institute Inc.). All experiments were performed according to an institute-approved guideline.

[2] = test system: insulin release; conditions: 100 nmol/g directly into the stomach of 24-hour fasted C57/B6 mice; 2 hours after administration (FIG. 13)
Method: All experiments were performed according to an institute-approved guideline.

[3] = biological target: GT01 (Mus musculus, UniProt Q7TMA4); conditions: STC-1 cells; peak eliminated by RNAi specific for GT01 (FIG. 6)
GT01, sequence (Q7TMA4 whole entry): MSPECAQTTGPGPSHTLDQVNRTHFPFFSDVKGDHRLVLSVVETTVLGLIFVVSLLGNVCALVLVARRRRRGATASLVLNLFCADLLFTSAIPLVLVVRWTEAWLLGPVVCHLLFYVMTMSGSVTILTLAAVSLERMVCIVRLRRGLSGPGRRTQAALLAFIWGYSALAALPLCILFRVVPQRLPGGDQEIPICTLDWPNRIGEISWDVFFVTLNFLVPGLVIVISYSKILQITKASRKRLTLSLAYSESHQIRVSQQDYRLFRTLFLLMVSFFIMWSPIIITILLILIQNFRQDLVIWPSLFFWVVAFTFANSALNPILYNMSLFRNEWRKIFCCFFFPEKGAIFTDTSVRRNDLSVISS
Method: Cells (STC-1 cells) are cultured in a 35-mm culture dish with a cover glass in the bottom. After washing with a Ca-tyrode solution, a Ca-tyrode solution containing 2 μM fura-AM is added thereto, which is then placed at room temperature for 20 minutes. After washing twice with a Ca-tyrode solution, 1 mL of Ca-tyrode solution is added thereto, and images are captured at room temperature at 15-second intervals using ARGUS200 (340/380 nm measurement) with a 40× objective lens. For each of the captured images, the ratio is calculated. Stimulation (using bombesin) serving as a control for the ligand is carried out 10 and 20 minutes later.
When an RNAi vector was transfected, fluorescence due to GFP simultaneously transfected is measured; a Ca^2+ response over time for cells having GFP fluorescence and showing Ca^2+ elevation with the control vector was quantitatively determined, and is indicated (FIG. 6).
The gene transfection into STC-1 cells was carried out using Lipofectamine Plus, and intracellular Ca^2+ concentration was then measured under a microscope (lower graph in FIG. 6).

[4] = test system: human intestinal cell line NCI-H716; conditions: literature report, background art; cited from earlier work

Q: Which “secretion of GLP-1 (plasma from portal vein)” value [1] does the source give for `CC/C=C\C/C=C\C/C=C\CCCCCCCC(=O)O` [α-linolenic acid] here?
A: Its value is “induced”.

Q: What about the “insulin concentration in plasma, portal vein versus inferior vena cava” value [2] of the same molecule?
A: The value was “higher concentration of insulin was detected in the plasma sampled from the portal vein”.

Q: What about the “elevation of intracellular calcium concentration” value [3] of the same molecule?
A: The value was “elevates intracellular calcium concentration via GT01”.

Q: For `CCCCCCCCCCCCCCCCCC(=O)O` [stearic acid], which “secretion of GLP-1 (plasma from portal vein)” value [1] is on record?
A: The value was “induced”.

Q: Which “secretion of GLP-1 from NCI-H716 cells” value [4] does the source give for `CCCCCCCC/C=C\CCCCCCCC(=O)O` [oleic acid] here?
A: Its value is “promotes the secretion of GLP-1”.

Q: For `CCCCCCCCCCCCCCCC(=O)O` [palmitic acid], which “secretion of GLP-1 from NCI-H716 cells” value [4] is on record?
A: The value was “promotes the secretion of GLP-1”.
